Data as given in patent publication US8247612B2, “Organic sulfur compound and its use for controlling harmful arthropod” (Sumitomo Chemical Company, Limited, priority 2007, dated 2012).

Tests used:
Format in all cases: in vivo
[1] = system: Haemaphysalis longicornis; assay: Test Example 5: treated filter paper pouch, death rate of ticks; details: filter paper treated with 100 mg/m^2; non-blood-sucking nymphal ticks, 10 ticks/group; after 2 days
Method: Five milligrams of any one of the present compounds (3), (10), (14), (15), (16) and (17) was dissolved in 10 mL of acetone. One milliliter of the acetone solution was uniformly applied on one side of a filter paper (TOYO No. 2; 5×10 cm), so that the filter paper was treated with 100 mg/m^2 of the present compound. After drying, the filter paper was folded in two and its edges were clipped to make a pouch. Non-blood-sucking nymphal ticks (Haemaphysalis longicornis, 10 ticks/group) were put into the pouch, and the pouch was sealed with clips. After 2 days, the number of surviving ticks was examined and the death rate was calculated. As a result, in treatments with the present compounds (3), (10), (14), (15), (16) and (17), the death rate of the tick was 90%.

Culex pipiens pallens = assay: Test Example 4: larvae in treated water, death rate of Culex pipiens pallens; details: 24 h, active ingredient concentration 3.5 ppm in water, 20 last-instar larvae, after one day
Method: Preparations of the present compounds (1), (2), (3), (4), (5), (6), (9), (10), (11), (12), (14), (15), (16), (17), (19), (20), (22), (23), (24), (26), (27), (28), (29), (30) and (31) obtained according to Formulation Example 36 were diluted so that the active ingredient concentration was 500 ppm to obtain test solutions. To 100 mL of ion-exchanged water, 0.7 ml of the test solution was added (active ingredient concentration: 3.5 ppm). Into the solution, 20 last-instar larvae of Culex pipiens pallens were released. After one day, the number of surviving Culex pipiens pallens was examined and the death rate of the pest was calculated. As a result, in treatments with the present compounds (1), (2), (3), (4), (5), (6), (9), (10), (11), (12), (14), (15), (16), (17), (19), (20), (22), (23), (24), (26), (27), (28), (29), (30) and (31), the death rate of the pest was 90% or more.

Musca domestica = assay: Test Example 2: treated filter paper with sucrose bait, death rate of Musca domestica; details: 500 ppm test solution, 0.7 ml on filter paper, 10 female imagoes, after 24 hours
Method: Preparations of the present compounds (2), (3), (5), (6), (9), (10), (11), (12), (13), (14), (15), (16), (17), (19), (20), (24), (25), (26), (28), (29), (30) and (31) obtained according to Formulation Example 36 were diluted so that the active ingredient concentration was 500 ppm to obtain test solutions.
(§1) A filter paper having a diameter of 5.5 cm was spread on the bottom of a polyethylene cup having a diameter of 5.5 cm and 0.7 ml of the test solution was added dropwise onto the filter paper. As a bait 30 mg of sucrose was uniformly placed on the filter paper. Into the polyethylene cup, 10 female imagoes of Musca domestica were released and the cup was sealed with a lid. After 24 hours, the number of surviving Musca domestica was examined and the death rate of the pest was calculated.
As a result, in treatments with the present compounds (2), (3), (5), (6), (9), (10), (11), (12), (13), (14), (15), (16), (17), (19), (20), (24), (25), (26), (28), (29), (30) and (31), the death rate of the pest was 70% or more.

Blattalla germanica = assay: Test Example 3: treated filter paper with sucrose bait, death rate of Blattalla germanica; details: 144 h; 500 ppm test solution, 0.7 ml on filter paper; 2 male imagoes; after 6 days
Method: Preparations of the present compounds (2), (3), (5), (6), (10), (11), (12), (14), (15), (16), (17), (19), (20), (24), (25), (26), (29), (30) and (31) obtained according to Formulation Example 36 were diluted so that the active ingredient concentration was 500 ppm to obtain test solutions.
as §1, with “2 male” for “10 female”, “Blattalla germanica” for “Musca domestica”, “6 days,” for “24 hours,”
As a result, in treatments with the present compounds (2), (3), (5), (6), (10), (11), (12), (14), (15), (16), (17), (19), (20), (24), (25), (26), (29), (30) and (31), the death rate of the pest was 100%.

**Q.** How did the “death rate of the tick” value [1] turn out when CC(CCC(Cl)(C(N)=O)S(=O)(=O)CCC(F)(F)F)C(F)(F)F (centres unmarked) [present compound (3), 2-chloro-6,6,6-trifluoro-5-methyl-2-(3,3,3-trifluoropropylsulfonyl)hexanamide] was run?
**A.** The value was 90%.

**Q.** And the pest or weed control at 3.5 ppm (Culex pipiens pallens)?
**A.** The pest or weed control at 3.5 ppm was no less than 90%.

**Q.** And the pest or weed control at 500 ppm (Musca domestica)?
**A.** Its pest or weed control at 500 ppm is no less than 70%.

**Q.** What about the pest or weed control at 500 ppm (Blattalla germanica) of the same compound?
**A.** The pest or weed control at 500 ppm was 100%.

**Q.** Which “death rate of the tick” value [1] does the source give for CCC(CCC(F)(C#N)S(=O)(=O)CCC(F)(F)F)C(F)(F)F (centres unmarked) [present compound (15), 2-fluoro-5-(trifluoromethyl)-2-(3,3,3-trifluoropropylsulfonyl)heptanenitrile] here?
**A.** Its value is 90%.

**Q.** And the pest or weed control at 3.5 ppm (Culex pipiens pallens)?
**A.** Its pest or weed control at 3.5 ppm is no less than 90%.

**Q.** What about the pest or weed control at 500 ppm (Musca domestica) of the same compound?
**A.** The pest or weed control at 500 ppm was no less than 70%.

**Q.** What about the pest or weed control at 500 ppm (Blattalla germanica) of the same compound?
**A.** The pest or weed control at 500 ppm was 100%.

**Q.** CC(CCC(C#N)S(=O)(=O)CCC(F)(F)F)C(F)(F)F (centres unmarked) [present compound (10), 6,6,6-trifluoro-5-methyl-2-(3,3,3-trifluoropropylsulfonyl)hexanenitrile] was tested. Which “death rate of the tick” value [1] did it give?
**A.** The value was 90%.

**Q.** And the pest or weed control at 3.5 ppm (Culex pipiens pallens)?
**A.** Its pest or weed control at 3.5 ppm is no less than 90%.

**Q.** And the pest or weed control at 500 ppm (Musca domestica)?
**A.** Its pest or weed control at 500 ppm is no less than 70%.

**Q.** What about the pest or weed control at 500 ppm (Blattalla germanica) of the same compound?
**A.** The pest or weed control at 500 ppm was 100%.

**Q.** With CCC(CCC(Cl)(C#N)S(=O)(=O)CCC(F)(F)F)C(F)(F)F (centres unmarked) [present compound (16), 2-chloro-5-(trifluoromethyl)-2-(3,3,3-trifluoropropylsulfonyl)heptanenitrile] as the compound, how does the “death rate of the tick” value [1] read?
**A.** Its value is 90%.

**Q.** And the pest or weed control at 3.5 ppm (Culex pipiens pallens)?
**A.** The pest or weed control at 3.5 ppm was no less than 90%.

**Q.** And the pest or weed control at 500 ppm (Musca domestica)?
**A.** The pest or weed control at 500 ppm was no less than 70%.

**Q.** What about the pest or weed control at 500 ppm (Blattalla germanica) of the same compound?
**A.** Its pest or weed control at 500 ppm is 100%.

**Q.** How did the “death rate of the tick” value [1] turn out when CCC(CCC(C#N)S(=O)(=O)CCC(F)(F)F)C(F)(F)F (centres unmarked) [present compound (14), 5-(trifluoromethyl)-2-(3,3,3-trifluoropropylsulfonyl)heptanenitrile] was run?
**A.** Its value is 90%.

**Q.** What about the pest or weed control at 3.5 ppm (Culex pipiens pallens) of the same compound?
**A.** The pest or weed control at 3.5 ppm was no less than 90%.

**Q.** What about the pest or weed control at 500 ppm (Musca domestica) of the same compound?
**A.** The pest or weed control at 500 ppm was no less than 70%.

**Q.** And the pest or weed control at 500 ppm (Blattalla germanica)?
**A.** The pest or weed control at 500 ppm was 100%.
